Experimental data published in article PMC10124032, “Toosendanin targeting eEF2 impedes Topoisomerase I & II protein translation to suppress esophageal squamous cell carcinoma growth” (Journal of Experimental & Clinical Cancer Research : CR, 2023).

Assays:
[1] = target: T1, eEF2 (eukaryotic translational elongation factor 2) (Homo sapiens, UniProt P13639); assay: ITC (KD […]); also SPR (KD […]), CETSA in KYSE510 and […] T cells, GTPase-Glo inhibition of purified eEF2; assay type: binding; set-up: eEF2-3 × Flag purified from 293 T cells
[2] = target: T1, eEF2 (eukaryotic translational elongation factor 2); assay: SPR (Biacore T200); assay type: binding; set-up: eEF2 protein immobilized on a CM5 chip

Kd [2]	SMILES	Kd [1]
–	CC(=O)O[C@@H]1C[C@H](O)[C@@]23CO[C@@H](O)[C@]1(C)[C@@H]2C[C@@H](O)[C@]1(C)[C@@H]3C(=O)[C@H](OC(C)=O)[C@@]2(C)[C@H](c3ccoc3)C[C@H]3O[C@]321 [TSN, Toosendanin]	~16.6 nM
54.1 nM	O=C(NCCN1CCCC1)c1cc(-c2ccc(CN3CCOCC3)cc2)nc2ccc(F)cc12 [DDD107498]	–
